The values below come from US20130109682A1, “CYCLIC ETHER COMPOUNDS USEFUL AS KINASE INHIBITORS” (NOVARTIS AG, priority 2010, published 2013).

Bounds are passed on as bounds.

One experiment deals with PIM2 (Homo sapiens, UniProt Q9P1W9). As to the kind of experiment: KinaseGlo Pim2 ATP depletion assay. The format is biochemical. The method, boiled down:
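Luminescent ATP-depletion read-out of PIM2 phosphorylating BAD peptide (RSRHSSYPAGT-OH). Final conditions: 5 nM PIM2, 4 μM ATP, 10 μM peptide, 2.5% DMSO in 50 mM HEPES pH 7.5, 5 mM MgCl2, 1 mM DTT, 0.05% BSA. Enzyme–peptide preincubated 15 min with compound; reaction run to ~50% ATP depletion.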
(Kinase-Glo reads ATP consumption through a luciferase reaction.)

The target in the next experiment is PIM3 (Homo sapiens, UniProt Q86V86). As to the kind of experiment: KinaseGlo Pim3 ATP depletion assay. The class given is biochemical. The method, boiled down: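 Kinase was preincubated 15 min with BAD peptide in HEPES pH 7.5/MgCl2/DTT/BSA before ATP was added. Final concentrations were 40 μM ATP, 100 μM BAD peptide and 2.5% DMSO, with 5 nM enzyme. The reaction ran to ~50% ATP depletion and remaining ATP was read by KinaseGlo Plus luminescence.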

For a further experiment, the target named is GSK3β (Homo sapiens, UniProt P49841). The experiment can be described thus: GSK3β ATP depletion assay. The class given is biochemical. The settings on record: read-out: GSK3b IC50. The method, boiled down: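 Human GSK3β (5 nM) preincubated 15 min with 10 μM biotinylated phospho-CREB peptide in pH 7.5 Tris buffer (15 mM MgCl2, 1 mM DTT, 0.1% BSA, 2.5% DMSO). Reaction started with 2 μM ATP and run to about 50% ATP depletion. Remaining ATP measured by KinaseGlo luminescence.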
Sequence of GSK3β (P49841 whole entry, species assumed): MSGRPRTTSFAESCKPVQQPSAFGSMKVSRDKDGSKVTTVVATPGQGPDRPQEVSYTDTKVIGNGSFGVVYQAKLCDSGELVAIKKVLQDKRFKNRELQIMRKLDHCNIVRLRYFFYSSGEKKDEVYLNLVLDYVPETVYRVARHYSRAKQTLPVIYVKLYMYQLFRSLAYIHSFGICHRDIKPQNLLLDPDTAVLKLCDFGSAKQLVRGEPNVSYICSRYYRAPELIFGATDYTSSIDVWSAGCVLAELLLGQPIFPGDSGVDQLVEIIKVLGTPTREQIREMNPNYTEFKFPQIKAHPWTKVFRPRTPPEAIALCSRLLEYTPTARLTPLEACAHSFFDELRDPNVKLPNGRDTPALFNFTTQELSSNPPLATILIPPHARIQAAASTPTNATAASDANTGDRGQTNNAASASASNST

The test system of experiment [1] is KMS11 (human myeloma cell line). As to the kind of experiment: Cell proliferation assay (CellTiter-Glo), KMS11. The format is cell-based. The settings on record: Homo sapiens, KMS-11; KMS11-Luc cells. The method, boiled down: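 KMS11 cells in IMDM with 10% FBS and sodium pyruvate, seeded at 2000 cells/well on assay day. Compound added at 2× to equal volume of cells, incubated 3 days at 37° C. Viability read by CellTiter-Glo luminescence; EC50 derived.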

A further experiment has as its target PIM1 (Homo sapiens, UniProt P11309). As to the kind of experiment: KinaseGlo Pim1 ATP depletion assay. The class given is biochemical. The method, boiled down:
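2.5 nM PIM1 preincubated 15 min with compound and 40 μM BAD peptide in 50 mM HEPES pH 7.5, 5 mM MgCl2, 1 mM DTT, 0.05% BSA, 2.5% DMSO. The reaction was started with 20 μM ATP (final) and run to about 50% ATP depletion. Remaining ATP read by KinaseGlo Plus luminescence to give IC50.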

Usually IC50 stands for the midpoint of a concentration-inhibition curve. As a reminder, the EC50 is the midpoint of the concentration-response curve.

Sequence of PIM1 (P11309 whole entry): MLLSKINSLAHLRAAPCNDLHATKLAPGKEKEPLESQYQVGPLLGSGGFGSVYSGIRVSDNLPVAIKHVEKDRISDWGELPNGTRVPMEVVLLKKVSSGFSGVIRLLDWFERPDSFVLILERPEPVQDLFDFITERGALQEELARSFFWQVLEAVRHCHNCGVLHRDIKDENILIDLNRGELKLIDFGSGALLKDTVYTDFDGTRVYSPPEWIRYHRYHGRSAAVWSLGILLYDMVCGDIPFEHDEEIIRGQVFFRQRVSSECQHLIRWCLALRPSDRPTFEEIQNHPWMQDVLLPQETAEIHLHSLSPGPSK
Sequence of PIM2 (Q9P1W9 whole entry): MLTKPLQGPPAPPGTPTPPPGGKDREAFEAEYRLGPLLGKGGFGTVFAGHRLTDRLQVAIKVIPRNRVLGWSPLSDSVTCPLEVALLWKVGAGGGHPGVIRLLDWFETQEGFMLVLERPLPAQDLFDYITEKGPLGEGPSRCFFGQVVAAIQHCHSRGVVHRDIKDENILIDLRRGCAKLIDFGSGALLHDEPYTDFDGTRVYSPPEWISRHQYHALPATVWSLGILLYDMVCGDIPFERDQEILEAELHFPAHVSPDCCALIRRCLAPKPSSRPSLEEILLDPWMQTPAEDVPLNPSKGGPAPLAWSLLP

For `C[C@@H]1O[C@H](c2ccncc2NC(=O)c2ccc(F)c(-c3c(F)cccc3F)n2)C[C@@H](O)[C@H]1O` [Example 107, 6-(2,6-difluorophenyl)-N-(4-((2S,4R,5R,6S)-4,5-dihydroxy-6-methyltetrahydro-2H-pyran-2-yl)pyridin-3-yl)-5-fluoropicolinamide], the IC50 against PIM2 is 0.02 µM; at PIM3 it was 0.004 µM; at GSK3β, 0.196 µM; on PIM1, 0.002 µM. This compound also yielded a 50% effective concentration (EC50) in experiment [1] of 5.9 µM.
On to `C[C@H]1O[C@@H](c2ccncc2NC(=O)c2ccc(F)c(-c3c(F)cccc3F)n2)C[C@H](O)[C@@H]1O` [Example 108, 6-(2,6-difluorophenyl)-N-(4-((2R,4S,5S,6R)-4,5-dihydroxy-6-methyltetrahydro-2H-pyran-2-yl)pyridin-3-yl)-5-fluoropicolinamide], for which the IC50 on PIM2 was determined as 0.015 µM; on PIM3, 0.005 µM; on GSK3β, 0.344 µM; against PIM1 it was 0.001 µM. In experiment [1], this compound registered an EC50 of 4.2 µM.
On the same counts, the results for `C[C@@H]1O[C@H](c2ccncc2NC(=O)c2csc(-c3c(F)cccc3F)n2)C[C@H](N)[C@H]1O` [Example 113, N-(4-((2S,4S,5R,6S)-4-amino-5-hydroxy-6-methyltetrahydro-2H-pyran-2-yl)pyridin-3-yl)-2-(2,6-difluorophenyl)thiazole-4-carboxamide] are 0.142 µM, 0.011 µM, 0.064 µM, 0.005 µM and above 10 µM.
`C[C@H]1O[C@@H](c2ccncc2NC(=O)c2csc(-c3c(F)cccc3F)n2)C[C@@H](N)[C@@H]1O` [Example 114, N-(4-((2R,4R,5S,6R)-4-amino-5-hydroxy-6-methyltetrahydro-2H-pyran-2-yl)pyridin-3-yl)-2-(2,6-difluorophenyl)thiazole-4-carboxamide]: the 50% inhibitory concentration (IC50) stood at 0.144 µM on PIM2, 0.014 µM at PIM3, 0.652 µM on GSK3β and 0.004 µM on PIM1. Moreover, the 50% effective concentration (EC50) in experiment [1] turned out to be 1.5 µM.
On the same counts, the results for `C[C@H]1O[C@@H](c2ccncc2NC(=O)c2ccc(F)c(-c3c(F)cccc3F)n2)C[C@@H](N)[C@@H]1O` [Example 116, N-(4-((2R,4R,5S,6R)-4-amino-5-hydroxy-6-methyltetrahydro-2H-pyran-2-yl)pyridin-3-yl)-6-(2,6-difluorophenyl)-5-fluoropicolinamide] are 0.023 µM, 0.007 µM, 3.06 µM, 0.002 µM and 1.9 µM.
For `O=C(Nc1cnccc1C1OCCCO1)c1csc(-c2c(F)cccc2F)n1` [Example 117, N-(4-(1,3-dioxan-2-yl)pyridin-3-yl)-2-(2,6-difluorophenyl)thiazole-4-carboxamide], the IC50 at PIM2 was 2.48 µM; against PIM3, 0.04 µM; on GSK3β it was 2.73 µM; at PIM1, 0.008 µM. Besides, in experiment [1], a half-maximal response (EC50) required 9.5 µM.
For `O=C(Nc1cnccc1C1OCCCO1)c1ccc(F)c(-c2c(F)cccc2F)n1` [Example 118, N-(4-(1,3-dioxan-2-yl)pyridin-3-yl)-6-(2,6-difluorophenyl)-5-fluoropicolinamide], in that order: 0.363 µM, 0.017 µM, 3.52 µM, 0.004 µM and above 10 µM.
Regarding `C[C@H]1O[C@@H](c2ccncc2NC(=O)c2ccc(F)c(-c3c(F)cccc3F)n2)C[C@@H](O)[C@@H]1O` [Example 119, 6-(2,6-difluorophenyl)-N-(4-((2R,4R,5S,6R)-4,5-dihydroxy-6-methyltetrahydro-2H-pyran-2-yl)pyridin-3-yl)-5-fluoropicolinamide], the half-maximal inhibitory concentration (IC50) against PIM2 is 0.011 µM; against PIM3, 0.002 µM; at GSK3β, 0.629 µM; against PIM1 it was 0.001 µM. Further, the response in experiment [1] was half-maximal at 7.2 µM (EC50).
For the compound `C[C@@H]1O[C@H](c2ccncc2NC(=O)c2ccc(F)c(-c3c(F)cccc3F)n2)C[C@H](O)[C@H]1O` [Example 120, 6-(2,6-difluorophenyl)-N-(4-((2S,4S,5R,6S)-4,5-dihydroxy-6-methyltetrahydro-2H-pyran-2-yl)pyridin-3-yl)-5-fluoropicolinamide], the IC50 against PIM2 stood at 0.012 µM; against PIM3, 0.003 µM; on GSK3β it was 0.798 µM; at PIM1 it was 0.002 µM. This compound came in with a half-maximal effective concentration (EC50) in experiment [1] above 10 µM.
Take `O=C(Nc1cnccc1[C@@H]1C[C@H](O)CCO1)c1csc(-c2c(F)cccc2F)n1` [Example 130, 2-(2,6-difluorophenyl)-N-(4-((2S,4R)-4-hydroxytetrahydro-2H-pyran-2-yl)pyridin-3-yl)thiazole-4-carboxamide]: the half-inhibitory concentration (IC50) on PIM2 turned out to be 2.35 µM; against PIM3, 0.084 µM; on GSK3β it was 0.228 µM; against PIM1, 0.012 µM. The compound also displayed a 50% effective concentration (EC50) in experiment [1] above 10 µM.
For the compound `O=C(Nc1cnccc1[C@H]1C[C@@H](O)CCO1)c1csc(-c2c(F)cccc2F)n1` [Example 131, 2-(2,6-difluorophenyl)-N-(4-((2R,4S)-4-hydroxytetrahydro-2H-pyran-2-yl)pyridin-3-yl)thiazole-4-carboxamide], the concentration for half-maximal inhibition (IC50) amounted to 1.11 µM on PIM2, 0.022 µM against PIM3, 0.216 µM on GSK3β and 0.003 µM against PIM1. In experiment [1], this compound came in with an EC50 above 10 µM.
For `O=C(Nc1cnccc1[C@@H]1C[C@H](O)CCO1)c1ccc(F)c(-c2c(F)cccc2F)n1` [Example 132, 6-(2,6-difluorophenyl)-5-fluoro-N-(4-((2S,4R)-4-hydroxytetrahydro-2H-pyran-2-yl)pyridin-3-yl)picolinamide], in that order: 0.465 µM, 0.033 µM, 0.196 µM, 0.006 µM and above 10 µM.
In the case of `O=C(Nc1cnccc1[C@@H]1CCCCO1)c1ccc(F)c(-c2c(F)cccc2F)n1` [Example 133, (S)-6-(2,6-difluorophenyl)-5-fluoro-N-(4-(tetrahydro-2H-pyran-2-yl)pyridin-3-yl)picolinamide], the IC50 is 0.214 µM against PIM2, 0.01 µM on PIM3, 2.2 µM at GSK3β and 0.003 µM at PIM1. In experiment [1], this compound yielded an EC50 above 10 µM.
For `O=C(Nc1cnccc1[C@H]1CCCCO1)c1ccc(F)c(-c2c(F)cccc2F)n1` [Example 134, (R)-6-(2,6-difluorophenyl)-5-fluoro-N-(4-(tetrahydro-2H-pyran-2-yl)pyridin-3-yl)picolinamide], the IC50 against PIM2 amounted to 0.678 µM; against PIM3, 0.4 µM; at GSK3β it was 0.759 µM; against PIM1, 0.01 µM. Further, the EC50 in experiment [1] was above 10 µM.
For `N#CC[C@H]1O[C@@H](c2ccncc2NC(=O)c2ccc(F)c(-c3c(F)cccc3F)n2)C[C@@H](O)[C@@H]1O` [Example 137, N-(4-((2R,4R,5S,6R)-6-(cyanomethyl)-4,5-dihydroxytetrahydro-2H-pyran-2-yl)pyridin-3-yl)-6-(2,6-difluorophenyl)-5-fluoropicolinamide], in that order: 0.023 µM, 0.005 µM, 0.351 µM, 0.003 µM and above 10 µM.
